Patent publication US8889712B2, “IAP antagonists” (Bristol-Myers Squibb Company, priority 2012, dated 2014)
Structures can show the parent of a compound that is named as a salt.

Key:
XIAP BIR2-3 = biological target: T1, XIAP BIR2-3 (Homo sapiens, UniProt P98170, C202A/C213G); experiment: XIAP-BIR2-3 dimeric SMAC Peptide Homogeneous Time Resolved Fluorescence (HTRF) Assay; assay type: binding; conditions: 0.5 nM N-His-BIR2-3 (125-356, C202A/C213G, XIAP), 20 nM fluorescein labeled dimeric SMAC peptide; HTRF signal; read-out: XIAP BIR2-3 IC50
T1 construct: His-BIR2-3 (125-356, C202A/C213G, XIAP)
T1 sequence (P98170 125-356 C202A/C213G): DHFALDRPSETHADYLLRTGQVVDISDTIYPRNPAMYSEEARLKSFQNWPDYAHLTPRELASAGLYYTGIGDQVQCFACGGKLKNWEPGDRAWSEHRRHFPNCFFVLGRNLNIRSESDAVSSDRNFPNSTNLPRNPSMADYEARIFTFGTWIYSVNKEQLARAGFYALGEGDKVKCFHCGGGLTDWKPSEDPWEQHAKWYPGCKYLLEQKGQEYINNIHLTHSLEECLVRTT
Procedure: B. […] Assays were performed in black, flat-bottom, 384-well plates. […] Compounds were dissolved at 3 mM in dimethylsulfoxide (DMSO) and evaluated at eleven serially diluted concentrations. IC50 and Ki values were derived by non-linear regression analysis.

XIAP BIR3 = biological target: T2, XIAP BIR3 (Homo sapiens, UniProt P98170); experiment: XIAP-BIR3/SMAC Homogeneous Time Resolved Fluorescence (HTRF) Assay; assay type: binding; conditions: 1 nM N-His-BIR3 (241-356, XIAP), 5 nM fluorescein labeled SMAC peptide; HTRF signal; read-out: XIAP BIR3 IC50
T2 construct: His-BIR3 (241-356, XIAP)
T2 sequence (P98170 241-356): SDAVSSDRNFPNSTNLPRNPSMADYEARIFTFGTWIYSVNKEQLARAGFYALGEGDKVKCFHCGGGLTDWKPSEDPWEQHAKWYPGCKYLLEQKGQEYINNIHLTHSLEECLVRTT
Method in brief: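 Competition HTRF between XIAP-BIR3 and SMAC; reaction 60 min at room temperature, then anti-6×His-terbium Fab detection for a further 30 min.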

Row | IC50 (XIAP BIR2-3) [nM] | IC50 (XIAP BIR3) [nM] | Compound
1 | 5.9 | 7.3 | CN[C@@H](C)C(=O)N[C@H](C(=O)N1CC(c2ccc3c(c2)CN(C(=O)[C@@H](NC(=O)[C@H](C)NC)C24CC5CC(CC(C5)C2)C4)[C@H](C(=O)NC2CCCc4ccccc42)C3)C[C@H]1C(=O)NC1CCCc2ccccc21)C(C)(C)C (stereo partly drawn) [Example 87, (S)-2-((S)-2-((3S,5S,7S)-Adamantan-1-yl)-2-((S)-2-(methylamino)propanamido)acetyl)-7-((3R,5S)-1-((S)-3,3-dimethyl-2-((S)-2-(methylamino)propanamido)butanoyl)-5-(((R)-1,2,3,4-tetrahydronaphthalen-1-yl)carbamoyl)pyrrolidin-3-yl)-N—((R)-1,2,3,4-tetrahydronaphthalen-1-yl)-1,2,3,4-tetrahydroisoquinoline-3-carboxamide, 2 TFA]
2 | 2.6 | 9 | CN[C@@H](C)C(=O)N[C@H](C(=O)N1C[C@@H](NC(=O)c2ccc3c(c2)CN(C(=O)[C@@H](NC(=O)[C@H](C)NC)C24CC5CC(CC(O)(C5)C2)C4)[C@H](C(=O)NC2CCCc4ccccc42)C3)C[C@H]1C(=O)NC1CCCc2ccccc21)C(C)(C)C (stereo partly drawn) [Example 88, (S)-N^7-((3S,5S)-1-((S)-3,3-dimethyl-2-((S)-2-(methylamino)propanamido)butanoyl)-5-(((R)-1,2,3,4-tetrahydronaphthalen-1-yl)carbamoyl)pyrrolidin-3-yl)-2-((S)-2-((1r,3R,5R,7S)-3-hydroxyadamantan-1-yl)-2-((S)-2-(methylamino)propanamido)acetyl)-N^3-((R)-1,2,3,4-tetrahydronaphthalen-1-yl)-1,2,3,4-tetrahydroisoquinoline-3,7-dicarboxamide]
3 | 360 | 37.8 | CN[C@@H](C)C(=O)N[C@H](C(=O)N1Cc2cc(C(=O)N[C@H]3C[C@@H](C(=O)N[C@@H]4CCCc5ccccc54)N(C(=O)[C@@H](NC(=O)[C@H](C)NC)C(C)(C)C)C3)ccc2C[C@H]1C(=O)N[C@@H]1CCCc2ccccc21)C(c1ccccc1)c1ccccc1 [Example 89, (S)-N^7-((3S,5S)-1-((S)-3,3-dimethyl-2-((S)-2-(methylamino)propanamido)butanoyl)-5-(((R)-1,2,3,4-tetrahydronaphthalen-1-yl)carbamoyl)pyrrolidin-3-yl)-2-((S)-2-((S)-2-(methylamino)propanamido)-3,3-diphenylpropanoyl)-N^3-((R)-1,2,3,4-tetrahydronaphthalen-1-yl)-1,2,3,4-tetrahydroisoquinoline-3,7-dicarboxamide]

Row | Compound | IC50 (XIAP BIR2-3) [nM] | IC50 (XIAP BIR3) [nM]
4 | (S)-2-((S)-3-Cyclopentyl-2-((S)-2-(methylamino) propanamido)propanoyl)-N^7-((3S,5S)-1-((S)-3,3-dimethyl-2- ((S)-2-(methylamino)propanamido)butanoyl)-5-(((R)-1,2,3,4- tetrahydronaphthalen-1-yl)carbamoyl)pyrrolidin-3-yl)-N^3- ((R)-1,2,3,4-tetrahydronaphthalen-1-yl)-1,2,3,4- tetrahydroisoquinoline-3,7-dicarboxamide [Example 6] | 2 | 14
